# Laboratory results published in patent US7846651B2, “Epitope/peptide recognized by HLA-A2402-restricted Ep-CAM-specific CTL and use of the same” (Aichi Prefecture, priority 2004, dated 2010).
# Assays:
# T2-A24 cells = experiment: 51Cr release assay of C27 against peptide-pulsed T2-A24; format: cell-based; details: effector to target ratio of 1
# PC9 = experiment: Cold target inhibition assay; format: cell-based; details: peptide 1×10^−5 M pulsed T2-A24 cells
# Description: Cold target inhibition assay was carried out according to the method of Arai et al. (Blood, 97:2903-2907, 2001). […] After several washings, the resultants were incubated with 2×10^4 effector cells for 1 hour to yield a ratio of peptide-pulsed T2-A24 cells to target cells of 40:1, 20:1, 10:1, and 5:1. 2×10^3 51Cr-labeled PC9 cell lines were added to each well. The cytotoxicity was determined as described in the item 7) regarding CTL assays.
# HLA-A2402 = HLA-A2402 (Homo sapiens, UniProt P04439, D101N/D140Y/D185E/E176V/E190D/F33S/G103R/G107R/I119L/I121M/I306V/K335N/L105A/L180Q/L300P/N151K/N90K/Q86E/Q94H/R106L/R138H/R89G/T104I/T345S/V100E/W191G/Y123F); experiment: MHC stabilization assay using T2-A24 cells; format: binding; details: ranking among the seven peptides
# [1] = tested on: CD8 positive T-cells of HLA-A2402 positive healthy donors; experiment: ELISPOT assay of IFN-γ; format: cell-based, human; details: T-cell lines stimulated by peptide-pulsed dendritic cells, incubated with peptide-pulsed T2-A24 cells
# Description: Subsequently, self-derived dendritic cells were pulsed at room temperature for 2 to 4 hours with each of the Ep-CAM synthesis peptides with a concentration of 10 μM in an AIM-V culture medium (product of Gibco) containing 5×10^−5 M β-mercaptoethanol, followed by irradiation (33Gy).
# The dendritic cells (1×10^5 cells) were then cocultivated in a culture tube with CD8 positive T lymphocytes (1×10^6 lymphocytes) in a RPMI1640 culture medium containing 10% human blood serum, 25 ng/mL recombinant human IL-7 (product of R&D systems company), and 5 ng/mL recombinant human IL-12 (product of R&D systems company).
# After seven days of cultivation, the cells were stimulated by adding 1×10^5 peptide-pulsed self-derived dendritic cells prepared as above. After a further seven days of cultivation, the cells were stimulated 3 times by the same procedure. After each restimulation, human recombinant IL-2 (product of Takeda Pharmaceutical Company, Ltd.) was added to give a final concentration of 20 units/ml. Actively proliferating cells were divided into 2 or 3 tubes as necessary, and cultured in a fresh culture medium containing 20 units/ml of IL-2. […]
# The plate was incubated at 37° C. for 20 hours in a 5% CO2 incubator, and thoroughly washed with PBS containing 0.05% Tween 20. […] The number of diffused large spots was counted under the microscope.
molecule,measurement,setting,value
CC[C@H](C)[C@H](NC(=O)[C@H](Cc1ccccc1)NC(=O)[C@H](CCCCN)NC(=O)[C@@H]1CCCN1C(=O)[C@H](CC(=O)O)NC(=O)[C@H](CC(C)C)NC(=O)[C@H](CCC(N)=O)NC(=O)[C@H](Cc1ccc(O)cc1)NC(=O)[C@@H](N)CCCNC(=N)N)C(=O)O [Ep173],peptide concentration at which C27 demonstrated cytotoxicity against pulsed T2-A24 cells,T2-A24 cells,100 pM
same,inhibition of C27-mediated cytotoxicity against PC9 by peptide-pulsed T2-A24 cold target cells,PC9,specifically inhibited
"EMGEMHREL (… PROTEIN EPITOPE PEPTIDE …) [Ep304, Ep-CAM peptide, amino acid positions 304-312]",affinity for the HLA-A2402,HLA-A2402,lowest affinity
"RYLRDQQLL (SYTHETIC PROTEIN EPITOPE PEPTIDE …) [ENV584, human immunodeficiency virus-1 (HIV-1) envelope peptide, residues 584-592, control, reference compound]",production of IFN-γ spots,[1],not observed
"YYVDEKAPEF (… PROTEIN EPITOPE PEPTIDE …) [Ep250, Ep-CAM peptide, amino acid positions 250-259]",production of IFN-γ spots,[1],specifically produced IFN-γ spots
